Holding throughout (format): cell-based
One experiment has as its system EKVX. Put plainly: NCI single dose screening (10 µM). The note with it: Homo sapiens, read-out: GI% (cell growth inhibition percentage).
In a further experiment the test system is HOP-92. The experiment can be described thus: NCI single dose screening (10 µM). The note with it: Homo sapiens.
The next experiment relates to NCI-H23. Put plainly: NCI single dose screening (10 µM). The note with it: Homo sapiens.
The subject of the next experiment is NCI-H522. The experiment can be described thus: NCI single dose screening (10 µM). The settings on record: Homo sapiens.
Another experiment deals with HCC-2998. The experiment can be described thus: NCI single dose screening (10 µM). The settings on record: Homo sapiens.
The next experiment concerns COLO 205. Put plainly: NCI single dose screening (10 µM). The settings on record: Homo sapiens.
A further experiment deals with SW-620. Put plainly: NCI single dose screening (10 µM). The note with it: Homo sapiens.
The next experiment concerns HCT-116. The experiment can be described thus: NCI single dose screening (10 µM). The settings on record: Homo sapiens.
In the next experiment the test system is KM12. The experiment can be described thus: NCI single dose screening (10 µM). The note with it: Homo sapiens.
The subject of another experiment is SF-539. Put plainly: NCI single dose screening (10 µM). The settings on record: Homo sapiens.
The next experiment has as its system U251. The experiment can be described thus: NCI single dose screening (10 µM). The settings on record: Homo sapiens.
Another experiment concerns SNB-19. Put plainly: NCI single dose screening (10 µM). The note with it: Homo sapiens.
The test system of the next experiment is M14. The experiment can be described thus: NCI single dose screening (10 µM). The note with it: Homo sapiens.
Another experiment has as its system UACC-257. The experiment can be described thus: NCI single dose screening (10 µM). The settings on record: Homo sapiens.
The test system of a further experiment is UACC-62. The experiment can be described thus: NCI single dose screening (10 µM). The note with it: Homo sapiens.
A further experiment has as its system OVCAR-8. Put plainly: NCI single dose screening (10 µM). The note with it: Homo sapiens.
The test system of the next experiment is OVCAR-4. The experiment can be described thus: NCI single dose screening (10 µM). The settings on record: Homo sapiens.
The subject of a further experiment is ACHN. Put plainly: NCI single dose screening (10 µM). The settings on record: Homo sapiens, read-out: GI% (cell growth inhibition percentage).
The test system of another experiment is RXF 393. Put plainly: NCI single dose screening (10 µM). The note with it: Homo sapiens.
The next experiment relates to DU-145. Put plainly: NCI single dose screening (10 µM). The settings on record: Homo sapiens.
The test system of the next experiment is T-47D. The experiment can be described thus: NCI single dose screening (10 µM). The settings on record: Homo sapiens, T47D, read-out: GI% (cell growth inhibition percentage).
Experiment [1] concerns NCI-55 cancer cell line panel. Put plainly: NCI single dose screening (10 µM), whole panel. The note with it: Homo sapiens, read-out: Mean inhibition, % (mean GI%).
The mark [2] stands for this setting: Non-small cell lung cancer, single dose 10^−5 M.
Setting [3] is: HOP-92, Non-small cell lung cancer, single dose 10^−5 M, read-out: GI% (cell growth inhibition percentage).
Where [4] appears, read: NCI-H23, Non-small cell lung cancer, single dose 10^−5 M, read-out: GI% (cell growth inhibition percentage).
Where [5] appears, read: NCI-H522, Non-small cell lung cancer, single dose 10^−5 M, read-out: GI% (cell growth inhibition percentage).
Setting [6] is: HCC-2998, Colon cancer, single dose 10^−5 M, read-out: GI% (cell growth inhibition percentage).
Where [7] appears, read: COLO 205, Colon cancer, single dose 10^−5 M, read-out: GI% (cell growth inhibition percentage).
The mark [8] stands for this setting: SW-620, Colon cancer, single dose 10^−5 M, read-out: GI% (cell growth inhibition percentage).
The mark [9] stands for this setting: HCT-116, Colon cancer, single dose 10^−5 M, read-out: GI% (cell growth inhibition percentage).
Setting [10] is: KM12, Colon cancer, single dose 10^−5 M, read-out: GI% (cell growth inhibition percentage).
Setting [11] is: SF-539, CNS cancer, single dose 10^−5 M, read-out: GI% (cell growth inhibition percentage).
The mark [12] stands for this setting: U-251, U251, CNS cancer, single dose 10^−5 M, read-out: GI% (cell growth inhibition percentage).
[13] abbreviates: SNB-19, CNS cancer, single dose 10^−5 M, read-out: GI% (cell growth inhibition percentage).
[14] abbreviates: M14, Melanoma, single dose 10^−5 M, read-out: GI% (cell growth inhibition percentage).
Where [15] appears, read: UACC-257, Melanoma, single dose 10^−5 M, read-out: GI% (cell growth inhibition percentage).
Where [16] appears, read: UACC-62, Melanoma, single dose 10^−5 M, read-out: GI% (cell growth inhibition percentage).
Where [17] appears, read: OVCAR-8, Ovarian cancer, single dose 10^−5 M, read-out: GI% (cell growth inhibition percentage).
The mark [18] stands for this setting: OVCAR-4, Ovarian cancer, single dose 10^−5 M, read-out: GI% (cell growth inhibition percentage).
Setting [19] is: Renal cancer, single dose 10^−5 M.
Setting [20] is: RXF 393, Renal cancer, single dose 10^−5 M, read-out: GI% (cell growth inhibition percentage).
The mark [21] stands for this setting: DU-145, Prostate cancer, single dose 10^−5 M, read-out: GI% (cell growth inhibition percentage).
Setting [22] is: T-47D, Breast cancer, single dose 10^−5 M.
[23] abbreviates: mean over NCI-55 cell lines, single dose 10^−5 M.

Molecules are shown by their SMILES. Like-named read-outs stand apart in the source and are kept apart here.

By inhibition is commonly meant the relative decrease from the control value, in per cent. Take `Cc1c(C(=O)N/N=C2\C(=O)Nc3ccc(Br)cc32)oc2ccccc12` [Compound 5c]: the inhibition at 10 µM in the experiment on EKVX (setting [2]) was 32.1%; in the experiment on HOP-92 (setting [3]), 26.5%; in the experiment with NCI-H23 (setting [4]) it was 33%; in the experiment on NCI-H522 (setting [5]), 10.3%; in the experiment on HCC-2998 (setting [6]) it was < 10%; in the experiment with COLO 205 (setting [7]) it was < 10%. Also, the inhibition at 10 µM in the experiment with SW-620 (setting [8]) was found to be 10.6%; in the experiment with HCT-116 (setting [9]), 32%; in the experiment with KM12 (setting [10]), 20.5%; in the experiment with SF-539 (setting [11]), 57.9%; in the experiment with U251 (setting [12]), 42.6%; in the experiment with SNB-19 (setting [13]), 31.5%. Further, the inhibition at 10 µM with M14 (setting [14]) is 25.4%; in the experiment with UACC-257 (setting [15]), < 10%; in the experiment on UACC-62 (setting [16]), 30.9%; with OVCAR-8 (setting [17]) it was 22.5%; in the experiment with OVCAR-4 (setting [18]), 31%; in the experiment with ACHN (setting [19]), 35.5%. The inhibition at 10 µM with RXF 393 (setting [20]) is 11.1%; in the experiment on DU-145 (setting [21]) it was 17%; in the experiment on T-47D (setting [22]), 42.7%; in [1] (setting [23]), 22%.

`COc1ccc2c(c1)/C(=N/NC(=O)c1oc3ccccc3c1C)C(=O)N2` [Compound 5d]: the inhibition at 10 µM in the experiment on EKVX (setting [2]) was 62.7%; in the experiment on HOP-92 (setting [3]) it was 144%; with NCI-H23 (setting [4]) it was 89.3%; in the experiment with NCI-H522 (setting [5]), 45.7%; with HCC-2998 (setting [6]), 56.5%; with COLO 205 (setting [7]), 77.2%. The inhibition at 10 µM with SW-620 (setting [8]) was 64.8%; in the experiment with HCT-116 (setting [9]) it was 129%; in the experiment on KM12 (setting [10]), 56.2%; in the experiment with SF-539 (setting [11]), 62.6%; in the experiment with U251 (setting [12]) it was 98%; with SNB-19 (setting [13]) it was 57.3%. Also, the inhibition at 10 µM with M14 (setting [14]) was 71.3%; in the experiment on UACC-257 (setting [15]) it was 50%; with UACC-62 (setting [16]) it was 65.7%; in the experiment on OVCAR-8 (setting [17]) it was 62.2%; with OVCAR-4 (setting [18]), 153%; in the experiment on ACHN (setting [19]), 151%. Besides, the inhibition at 10 µM in the experiment on RXF 393 (setting [20]) is 136%; in the experiment on DU-145 (setting [21]), 82.4%; in the experiment on T-47D (setting [22]), 139%; in experiment [1] (setting [23]) it was 87.3%.

For the compound `CCCN1C(=O)/C(=N\NC(=O)c2oc3ccccc3c2C)c2cc(Br)ccc21` [Compound 7g], the inhibition at 10 µM with EKVX was 18.1%; in the experiment on HOP-92 (HOP-92, read-out: GI% (cell growth inhibition percentage)) it was < 10%; in the experiment on NCI-H23 (NCI-H23, read-out: GI% (cell growth inhibition percentage)), < 10%; in the experiment with NCI-H522 (NCI-H522, read-out: GI% (cell growth inhibition percentage)), < 10%; in the experiment on HCC-2998 (HCC 2998, read-out: GI% (cell growth inhibition percentage)), < 10%; in the experiment on COLO 205 (COLO 205, read-out: GI% (cell growth inhibition percentage)), < 10%. Besides, the inhibition at 10 µM in the experiment with SW-620 (SW-620, read-out: GI% (cell growth inhibition percentage)) was < 10%; in the experiment on HCT-116 (HCT-116, read-out: GI% (cell growth inhibition percentage)), < 10%; with KM12 (KM12, read-out: GI% (cell growth inhibition percentage)), < 10%; in the experiment on SF-539 (SF-539, read-out: GI% (cell growth inhibition percentage)) it was < 10%; with U251 (U-251, read-out: GI% (cell growth inhibition percentage)) it was < 10%; in the experiment on SNB-19 (SNB-19, read-out: GI% (cell growth inhibition percentage)), < 10%. Also, the inhibition at 10 µM in the experiment with M14 (M14, read-out: GI% (cell growth inhibition percentage)) is < 10%; in the experiment on UACC-257 (UACC-257, read-out: GI% (cell growth inhibition percentage)), < 10%; in the experiment with UACC-62 (UACC-62, read-out: GI% (cell growth inhibition percentage)), < 10%; with OVCAR-8 (OVCAR-8, read-out: GI% (cell growth inhibition percentage)), < 10%; in the experiment on OVCAR-4 (OVCAR-4, read-out: GI% (cell growth inhibition percentage)), < 10%; in the experiment with ACHN it was < 10%. Also, the inhibition at 10 µM in the experiment on RXF 393 (RXF 393, read-out: GI% (cell growth inhibition percentage)) is < 10%; in the experiment on DU-145 (DU-145, read-out: GI% (cell growth inhibition percentage)), < 10%; in the experiment with T-47D it was < 10%; in [1], -0.8%.

(Values after publication PMC8245078, “Development of novel benzofuran-isatin conjugates as potential antiproliferative agents with apoptosis inducing mechanism in Colon cancer” (Journal of Enzyme Inhibition and Medicinal Chemistry, 2021).)
